From ChEMBL document CHEMBL5244223, “l,8-Naphthalimide based DNA intercalators and anticancer agents. A systematic review from 2007 to 2017” (Eur J Med Chem, 2018) come the findings set out here.

In brackets after ≈: the same amount, converted by molar mass.

One assay has as its system Escherichia coli. The experiment in a line: Antibacterial activity against Escherichia coli MTCC-739 assessed as inhibition of bacterial growth incubated for 24 hrs by two-fold serial dilution assay. It is filed as functional.
The subject of the next assay is Salmonella typhimurium. Description: Antibacterial activity against Salmonella typhimurium MTCC-98 assessed as inhibition of bacterial growth incubated for 24 hrs by two-fold serial dilution assay. Type of assay: functional, Salmonella enterica subsp. enterica serovar Typhimurium. The settings on record: Salmonella enterica.
In assay [1] the test system is Calf thymus DNA. The experiment in a line: Binding affinity to calf thymus DNA assessed as binding constant incubated for 30 mins by fluorescence based EtBr-displacement assay. It is filed as nucleic-acid assay. To be noted: Bos taurus.
The subject of a further assay is Staphylococcus aureus. Description: Antibacterial activity against Staphylococcus aureus MTCC-737 assessed as inhibition of bacterial growth incubated for 24 hrs by two-fold serial dilution assay. Type of assay: functional.
Assay [2] deals with MCF7. Description: Antiproliferative activity against human MCF7 cells assessed as inhibition of cell proliferation incubated for 72 hrs by MTT assay. Type of assay: functional, cell-based. To be noted: MCF7, 72 h. On the technique in general: Tetrazolium assays rely on reduction of a dye to a coloured formazan, in cell work by metabolically active cells.
A further assay relates to Jurkat. The experiment in a line: Antiproliferative activity against human Jurkat cells assessed as inhibition of cell proliferation incubated for 72 hrs by MTT assay. Type of assay: functional, cell-based.
Another assay concerns A549. The experiment in a line: Antiproliferative activity against human A549 cells assessed as inhibition of cell proliferation incubated for 72 hrs by MTT assay. Type of assay: functional, cell-based. To be noted: A549, 72 h.
In assay [3] the test system is Calf thymus DNA. Description: Binding affinity to calf thymus DNA assessed as apparent binding constant by fluorescence based EtBr-displacement assay. Type of assay: nucleic-acid assay. To be noted: Bos taurus.
In assay [4] the test system is Calf thymus DNA. The experiment in a line: Binding affinity to calf thymus DNA assessed as binding constant by fluorescence based EtBr-displacement based UV-Vis spectroscopic analysis. Type of assay: nucleic-acid assay. To be noted: Bos taurus.
Assay [5] is filed under the species Homo sapiens. The experiment in a line: Binding affinity to double stranded [poly(dA-dT)2] DNA (unknown origin) assessed as change in melting temperature in presence of NaCl by thermal denaturation based spectrometer analysis.
The species named for assay [6] is Homo sapiens. Description: Binding affinity to double stranded [poly(dA-dT)2] DNA (unknown origin) assessed as change in melting temperature by thermal denaturation based spectrometer analysis.
The next assay has as its system T47D. The experiment in a line: Cytotoxicity against human T47D cells assessed as cell growth inhibition incubated for 48 hrs by sulforhodamine B reagent assay. Type of assay: functional, cell-based. Background: The SRB assay estimates cell density from bound dye.
A further assay relates to KM12. Description: Cytotoxicity against human KM12 cells assessed as cell growth inhibition incubated for 48 hrs by sulforhodamine B reagent assay. The settings on record: KM12, 48 h. It is filed as functional, cell-based.
For the next assay, the system named is SK-MEL-28. Description: Cytotoxicity against human SK-MEL-28 cells assessed as cell growth inhibition incubated for 48 hrs by sulforhodamine B reagent assay. Type of assay: functional, cell-based. To be noted: SK-MEL-28, 48 h.
Another assay deals with DU-145. Description: Cytotoxicity against human DU-145 cells assessed as cell growth inhibition incubated for 48 hrs by sulforhodamine B reagent assay. The settings on record: DU-145, 48 h. It is filed as functional, cell-based.
For the next assay, the system named is U-251. The experiment in a line: Cytotoxicity against human U-251 cells assessed as cell growth inhibition incubated for 48 hrs by sulforhodamine B reagent assay. It is filed as functional, cell-based. The settings on record: U-251, 48 h.
Assay [7] deals with HCT-116. Description: Cytotoxicity against human HCT-116 cells assessed as cell growth inhibition incubated for 48 hrs by sulforhodamine B reagent assay. Type of assay: functional, cell-based. The settings on record: HCT-116, 48 h.
In a further assay the test system is MDA-MB-231. Description: Cytotoxicity against human MDA-MB-231 cells assessed as cell growth inhibition incubated for 48 hrs by sulforhodamine B reagent assay. Type of assay: functional, cell-based. The settings on record: MDA-MB-231, 48 h.
The subject of another assay is SW-620. Description: Cytotoxicity against human SW620 cells assessed as cell growth inhibition incubated for 48 hrs by sulforhodamine B reagent assay. The settings on record: SW-620, 48 h. It is filed as functional, cell-based.
A further assay has as its system 786-0. Description: Cytotoxicity against human 786-0 cells assessed as cell growth inhibition incubated for 48 hrs by sulforhodamine B reagent assay. Type of assay: functional, cell-based. To be noted: 786-0, 48 h.
The subject of the next assay is RXF 393. Description: Cytotoxicity against human RXF 393 cells assessed as cell growth inhibition incubated for 48 hrs by sulforhodamine B reagent assay. Type of assay: functional, cell-based. To be noted: RXF 393, 48 h.
The test system of a further assay is Hs-578T. The experiment in a line: Cytotoxicity against human Hs-578T cells assessed as cell growth inhibition incubated for 48 hrs by sulforhodamine B reagent assay. Type of assay: functional, cell-based.
For the next assay, the system named is Malme-3M. Description: Cytotoxicity against human Malme-3M cells assessed as cell growth inhibition incubated for 48 hrs by sulforhodamine B reagent assay. Type of assay: functional, cell-based.
The next assay deals with NCI-H322M. The experiment in a line: Cytotoxicity against human NCI-H322M cells assessed as cell growth inhibition incubated for 48 hrs by sulforhodamine B reagent assay. Type of assay: functional, cell-based.
In the next assay the test system is OVCAR-4. The experiment in a line: Cytotoxicity against human OVCAR-4 cells assessed as cell growth inhibition incubated for 48 hrs by sulforhodamine B reagent assay. Type of assay: functional, cell-based. The settings on record: OVCAR-4, 48 h.
Another assay deals with EKVX. Description: Cytotoxicity against human EKVX cells assessed as cell growth inhibition incubated for 48 hrs by sulforhodamine B reagent assay. Type of assay: functional, cell-based.
The subject of a further assay is SF-539. Description: Cytotoxicity against human SF-539 cells assessed as cell growth inhibition incubated for 48 hrs by sulforhodamine B reagent assay. It is filed as functional, cell-based. The settings on record: SF-539, 48 h.
A further assay relates to SK-MEL-5. The experiment in a line: Cytotoxicity against human SK-MEL-5 cells assessed as cell growth inhibition incubated for 48 hrs by sulforhodamine B reagent assay. Type of assay: functional, cell-based. To be noted: SK-MEL-5, 48 h.
The subject of the next assay is SNB-75. Description: Cytotoxicity against human SNB-75 cells assessed as cell growth inhibition incubated for 48 hrs by sulforhodamine B reagent assay. It is filed as functional, cell-based. To be noted: SNB-75, 48 h.
Another assay has as its system K562. The experiment in a line: Cytotoxicity against human K562 cells assessed as cell growth inhibition incubated for 48 hrs by sulforhodamine B reagent assay. It is filed as functional, cell-based. The settings on record: K562, 48 h.
A further assay has as its system BT-549. The experiment in a line: Cytotoxicity against human BT-549 cells assessed as cell growth inhibition incubated for 48 hrs by sulforhodamine B reagent assay. Type of assay: functional, cell-based. To be noted: BT-549, 48 h.
Assay [8] relates to MCF7. The experiment in a line: Cytotoxicity against human MCF7 cells assessed as cell growth inhibition incubated for 48 hrs by sulforhodamine B reagent assay. It is filed as functional, cell-based. To be noted: MCF7, 48 h.
A further assay relates to PANC-1. Description: Cytotoxicity against human PANC-1 cells assessed as inhibition of cell growth incubated for 24 hrs by XTT assay. Type of assay: functional, cell-based. To be noted: PANC-1, 24 h.
The test system of assay [9] is HCT-116. Description: Cytotoxicity against human HCT-116 cells assessed as inhibition of cell growth incubated for 24 hrs by XTT assay. To be noted: HCT-116, 24 h. Type of assay: functional, cell-based.
The test system of a further assay is Mus musculus. Description: Antitumor activity against mouse H22 cells xenografted in Kunming mouse assessed as decrease in tumor growth at 5 mg/kg administered as single injection via caudal vein for 7 consecutive days. It is filed as functional. Further details: scale not given: the % may be the effect or the level left.
The test system of assay [10] is Calf thymus DNA. The experiment in a line: Binding affinity to calf thymus DNA assessed as binding constant incubated for 10 mins by isothermal titration calorimetric assay. Type of assay: nucleic-acid assay. To be noted: Bos taurus. A general note: Isothermal titration calorimetry measures the heat released or taken up as one component is titrated into another.

As to `COc1ccc(/C=N/N2C(=O)c3cccc4cccc(c34)C2=O)cc1OC`, the MIC in the assay on Escherichia coli amounted to 31 µg/mL (≈ 86 µM); in the assay on Salmonella typhimurium it was 62 µg/mL (≈ 172 µM); in the assay with Staphylococcus aureus it was 62 µg/mL (≈ 172 µM). Further, the Kb in the assay with Calf thymus DNA [1] was 2 10^4/M.
Turning to `O=C1c2cccc3cccc(c23)C(=O)N1CCCCCCNCc1ccccn1`, the IC50 in the assay with MCF7 [2] is 5670 nM; in the assay with Jurkat it was 5580 nM; with A549 it was 5670 nM. The Kapp in the assay with Calf thymus DNA [3] is 3.1 10^6/M.
Take `O=C1c2cccc3c([N+](=O)[O-])ccc(c23)C(=O)N1c1cccc(-c2cc[n+]3c(c2)-c2cccc[n+]2CC3)c1`: in the assay on Calf thymus DNA [4], the K is 6.5 10^6/M. For the same compound, the ΔTm stood at 11 °C in the assay filed under Homo sapiens [5] and 23 °C in the assay listed under Homo sapiens [6].
Turning to `CN1CCN(c2ccc3nc(-c4ccc(OCCCN5C(=O)c6cccc7cccc(c67)C5=O)cc4)[nH]c3c2)CC1`, the IC50 in the assay with T47D, in the assay with KM12, in the assay on SK-MEL-28, in the assay on DU-145, in the assay on U-251 and in the assay on HCT-116 [7] was 110 nM throughout. In addition, the IC50 with MDA-MB-231, with SW-620, in the assay on 786-0, with RXF 393, with Hs-578T and in the assay on Malme-3M was 110 nM each time. The IC50 in the assay on NCI-H322M, with OVCAR-4, in the assay on EKVX, with SF-539, in the assay with SK-MEL-5 and in the assay on SNB-75 was 110 nM each time. Further, the IC50 in the assay on K562, in the assay on BT-549 and in the assay with MCF7 [8] was 110 nM throughout.
Take `CN(C)CCN1C(=O)c2cccc3cc(N)cc(c23)C1=O` [AMONAFIDE]: the IC50 in the assay with PANC-1 and in the assay with HCT-116 [9] was 2700 nM each time. The Activity in the assay with Mus musculus is on record as 43.73%.
For `C[n+]1ccn(CCN2C(=O)c3cc(Br)c4c5c(cc(Br)c(c35)C2=O)C(=O)N(CCn2cc[n+](C)c2)C4=O)c1`, the K with Calf thymus DNA [10] is 9.53 10^6/M.

The MIC is the least concentration at which growth counts as inhibited. A word on the IC50: it is the concentration that gives 50% inhibition. As a reminder, the ΔTm is the shift of the melting midpoint relative to a reference.
